Type in all cases: cell-based
Assay [1] relates to SARS-CoV-2.
Assay [2] deals with androgen receptor (AR).
Assay [3] relates to Powassan virus.
Assay [4] relates to Dengue virus. The experiment in a line: Dengue virus infection of U2OS cells, qPCR. The note with it: 10 μM, treated 2 hours before infection, MOI of 1, ~16-18 hours (FIG. 6). (In general: Quantitative PCR measures a nucleic acid by following its amplification.)
Assay [5] has as its system Zika virus. The experiment in a line: Zika virus infection of U2OS cells, qPCR. The note with it: 10 μM, treated 2 hours before infection, MOI of 1, ~16-18 hours (FIG. 7).

Structures are written as SMILES. “Also recorded” adds a separate entry of the source.

`O=C(CCCN1CCC(O)(c2ccc(Cl)cc2)CC1)c1ccc(F)cc1` [Haloperidol, 4-[4-(4-chlorophenyl)-4-hydroxypiperidin-1-yl]-1-(4-fluorophenyl)butan-1-one]: the “effect on SARS-CoV-2 infection (in words)” value (from here on “effect”) in assay [1] is listed as “clear but modest antiviral effect”.

Regarding `Cc1cc(OCCN2CCOCC2)nn1-c1ccc2ccccc2c1` [Compound S1RA, 4-[2-[[5-methyl-1-(2-naphthalenyl)-1H-pyrazol-3-yl]oxy]ethyl]morpholine], the “effect” value in assay [1] is “did not block infection; also recorded: does not block infection”.

Take `N=C(Nc1ccc(I)cc1)NC1C2CC3CC(C2)CC1C3` (stereo not shown) [IPAG]: the “DHT induced AR transcriptional activity” value in assay [2] is listed as “inhibition”. In assay [1], the “blocked SARS-CoV-2 infection (fold)” value is reported as 1,000 fold and the “effect” value is “inhibit SARS-CoV-2 infection”.

Regarding `O=C(OCCN1CCOCC1)C1(c2ccccc2)CCCCC1` [PRE084, 2-morpholin-4-ylethyl 1-phenylcyclohexane-1-carboxylate], the “effect” value in assay [1] is on record as “did not block infection”.

As for `COc1ccc(CCN2CCN(CCCc3ccccc3)CC2)cc1OC` [SA4503, 1-(3,4-dimethoxyphenethyl)-4-(3-phenylpropyl) piperazine], the “effect” value in assay [1] is listed as “did not block infection”.

With `N=C(NCCCOc1ccc(F)cc1)Nc1ccc(Cl)cc1` [CT189], in assay [2], the “DHT induced AR transcriptional activity” value was “inhibition”. Besides, in assay [1], the “blocked SARS-CoV-2 infection (fold)” value is listed as 1,000 fold and the “effect” value is recorded as “inhibit SARS-CoV-2 infection”. Besides, the “Powassan virus infection (fold change, qPCR)” value in assay [3] is given as “inhibit”. In addition, the “Dengue virus infection (fold change, qPCR)” value in assay [4] is on record as “inhibit”. In assay [5], the “Zika virus infection (fold change, qPCR)” value was “inhibit”.

Source of the values: patent US20230127965A1, “METHODS FOR TREATING, AMELIORATING, OR PREVENTING VIRAL INFECTIONS” (Thomas Jefferson University, priority 2020, published 2023).
